For test [1], the system named is H460. Description: MTS assay, IC50 in LKB1-null NSCLC cell line H460. In kind it is cell-based. The conditions noted are these: Homo sapiens. From the text: (§1) 2000 cells were seed in each well of a 96-well plate, and exposed to BMS754807 or 2-DG at indicated concentration for 48 hrs.
(§2) Analysis focused on NSCLC cell lines with LKB1 inactivation mutation. A549 and H460 both contain a Q37 to nonsense mutation, and H157 contains exon 2 and 3 deletion. All these mutations results in the loss of LKB1 protein function. MTS assay was used to measure the IC50 of BMS754807 and 2-DG in these cells (FIG. 1).
(In general: Tetrazolium dyes change colour on reduction, which living cells bring about.)

Test [2] concerns IGF1R. The experiment in a line: 2-DG induced IGF1R phosphorylation in LKB1-null NSCLC cell lines. The test is classed as cell-based.
For test [3], the system named is H157. Description: MTS assay, IC50 in LKB1-null NSCLC cell line H157. In kind it is cell-based. The conditions noted are these: Homo sapiens.
Text: as §1, §2

Test [4] relates to A549. The experiment in a line: MTS assay, IC50 in LKB1-null NSCLC cell line A549. In kind it is cell-based. The conditions noted are these: Homo sapiens.
Text: as §1, §2

Test [5] has as its system AKT. The experiment in a line: 2-DG induced AKT phosphorylation in LKB1-null NSCLC cell lines. In kind it is cell-based. The settings on record: for Akt phosphorylation induced by 2-DG: FIG. 2, cell line not named at the place; for 2-DG induced AKT phosphorylation: pre-incubated with 10 μM BMS754807 for 30 minutes, then 25 mM 2-DG. The method, then: Whether 2-DG induced AKT phosphorylation can be blocked by BMS754807 was determined. LKB1-null NSCLC cell lines was pre-incubated with 10 μM of BMS754807 for 30 minutes, and then stimulated with 25 mM 2-DG to induce phosphorylation. BMS754807 blocked 2-DG induced IGF1R and AKT phosphorylation in H460, and H157 cells.

Test [6] concerns H460. The experiment in a line: Combination index analysis of cell proliferation, H460. The test is classed as cell-based. The conditions noted are these: Homo sapiens.
For test [7], the system named is H157. The experiment in a line: Combination index analysis of cell proliferation, H157. The test is classed as cell-based. The conditions noted are these: Homo sapiens.
Test [8] has as its target IGF-I and IGF-binding protein 3 (IGFBP3) (Homo sapiens, UniProt P05019+P17936). The conditions noted are these: 2-DG treatments; cited from earlier work.
For test [9], the system named is AKT. The settings on record: through IGF1R and PI3K; cited from earlier work.

pIC50: −log10 of the molar value. Like-named read-outs stand apart in the source and are kept apart here.

The values below come from US20140288013A1, “METHODS AND COMPOSITIONS FOR THE MANAGEMENT OF CANCER USING 2-DG AND AN IGF-IR INHIBITOR” (priority 2011, published 2014).

Sequence of IGF-I and IGF-binding protein 3 (IGFBP3) (P17936 28-291, species assumed): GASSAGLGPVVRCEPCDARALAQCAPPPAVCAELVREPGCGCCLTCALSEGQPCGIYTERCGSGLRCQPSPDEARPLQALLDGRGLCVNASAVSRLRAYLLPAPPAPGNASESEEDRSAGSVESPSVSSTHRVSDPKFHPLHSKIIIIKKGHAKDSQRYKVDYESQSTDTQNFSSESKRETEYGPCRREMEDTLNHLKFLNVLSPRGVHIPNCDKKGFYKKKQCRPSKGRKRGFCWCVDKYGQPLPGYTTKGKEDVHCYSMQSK
Sequence of IGF-I and IGF-binding protein 3 (IGFBP3) (P05019 49-118 limits assumed, species assumed): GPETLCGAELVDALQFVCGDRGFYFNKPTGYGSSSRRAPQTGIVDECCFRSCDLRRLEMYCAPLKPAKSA

Take `CC1(C(=O)Nc2ccc(F)nc2)CCCN1c1nc(Nc2cc(C3CC3)[nH]n2)c2cccn2n1` (stereo not shown) [BMS-754807, 1-(4-((5-cyclopropyl-1H-pyrazol-3-yl)amino)pyrrolo[2,1-f][1,2,4]triazin-2-yl)-N-(6-fluoropyridin-3-yl)-2-methylpyrrolidine-2-carboxamide]: the pIC50 (usually the negative decadic logarithm of the IC50, by convention in mol/L) is 5.49 in test [1] (NCI-H460, 48 h); 4.97 in test [3] (NCI-H157, 48 h); 4.78 in test [4] (A549, 48 h). The “2-DG induced IGF1R phosphorylation” value is reported as “blocked” in test [2] (FIG. 2, cell line not named at the place); “blocked” in test [2] (H157 cells, pre-incubated with 10 μM BMS754807 for 30 minutes, then 25 mM 2-DG); “blocked” in [2] (H460 cells, pre-incubated with 10 μM BMS754807 for 30 minutes, then 25 mM 2-DG). In addition, the “Akt phosphorylation induced by 2-DG” value in test [5] is reported as “block”; in test [5] (listed as BMS754807), “blocked”. Moreover, the “2-DG induced AKT phosphorylation” value in test [5] (H157 cells) and in [5] (H460 cells) was “blocked” each time. Moreover, the viability at 5 µM in [6] (NCI-H460, BMS-754807 5.0 uM, read-out: FABMS-754807 (fraction growth inhibition by BMS-754807 alone)) was 80%; in test [7] (NCI-H157, BMS-754807 5.0 uM, read-out: FABMS-754807 (fraction growth inhibition by BMS-754807 alone)), 99%. For the same compound, the viability at 10 µM in test [6] (NCI-H460, BMS-754807 10.0 uM, read-out: FABMS-754807 (fraction growth inhibition by BMS-754807 alone)) is 69%; in test [7] (NCI-H157, BMS-754807 10.0 uM, read-out: FABMS-754807 (fraction growth inhibition by BMS-754807 alone)), 82%.

As for `O=CC[C@@H](O)[C@H](O)[C@H](O)CO` [2-DG, 2-Deoxyglucose], the pIC50 in [1] (NCI-H460, H460, MTS assay, 48 hrs, read-out: IC50) is 1.85; in [3] (NCI-H157, H157, MTS assay, 48 hrs, read-out: IC50), 1.66; in test [4] (A549, MTS assay, 48 hrs, read-out: IC50) it was 1.80. Further, the “binding between IGF-I and IGFBP3” value in test [8] is “disrupted”. Moreover, in test [9], the “activation of prosurvival oncoprotein AKT” value is listed as “activates”. Also, the viability at 2500 µM in test [6] (NCI-H460, 2-DG 2.5 mM, read-out: FA2-DG (fraction growth inhibition by 2-DG alone)) is 95%; in [7] (NCI-H157, 2-DG 2.5 mM, read-out: FA2-DG (fraction growth inhibition by 2-DG alone)) it was 93%. Also, the viability at 5000 µM in test [6] (NCI-H460, 2-DG 5.0 mM, read-out: FA2-DG (fraction growth inhibition by 2-DG alone)) was determined as 81%; in [7] (NCI-H157, 2-DG 5.0 mM, read-out: FA2-DG (fraction growth inhibition by 2-DG alone)) it was 80%. For the same compound, the viability at 10000 µM was determined as 71% in [6] (NCI-H460, 2-DG 10.0 mM, read-out: FA2-DG (fraction growth inhibition by 2-DG alone)) and 69% in test [7] (NCI-H157, 2-DG 10.0 mM, read-out: FA2-DG (fraction growth inhibition by 2-DG alone)).
